Measurements: PubChem BioAssay (NCI)
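Method: 48-hour compound exposure of cells in 96-well plates, five concentrations, linear interpolation of endpoints. TGI denotes the concentration required for complete inhibition of growth.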

How the values were obtained:
Test in all cases: NCI anticancer screen, dose series, 48 h
HCT-15 colon = test system: HCT-15 colon
786-0 renal = test system: 786-0 renal
COLO 205 colon = test system: COLO 205 colon
SK-MEL-2 melanoma = test system: SK-MEL-2 melanoma
CCRF-CEM leukemia = test system: CCRF-CEM leukemia
OVCAR-8 ovarian = test system: OVCAR-8 ovarian
SK-MEL-5 melanoma = test system: SK-MEL-5 melanoma
RPMI-8226 leukemia = test system: RPMI-8226 leukemia
M19-MEL melanoma = test system: M19-MEL melanoma
XF 498 CNS = test system: XF 498 CNS
HCT-116 colon = test system: HCT-116 colon
KM20L2 colon = test system: KM20L2 colon
K-562 leukemia = test system: K-562 leukemia
SK-MEL-28 melanoma = test system: SK-MEL-28 melanoma
OVCAR-4 ovarian = test system: OVCAR-4 ovarian
IGROV1 ovarian = test system: IGROV1 ovarian
OVCAR-5 ovarian = test system: OVCAR-5 ovarian
SNB-75 CNS = test system: SNB-75 CNS
SK-OV-3 ovarian = test system: SK-OV-3 ovarian
DMS 273 small cell lung = test system: DMS 273 small cell lung
ACHN renal = test system: ACHN renal
UACC-257 melanoma = test system: UACC-257 melanoma
NCI-H226 lung = test system: NCI-H226 lung
MOLT-4 leukemia = test system: MOLT-4 leukemia
NCI-H23 lung = test system: NCI-H23 lung
HT29 colon = test system: HT29 colon
A498 renal = test system: A498 renal
HOP-92 NSCLC = test system: HOP-92 NSCLC
NCI-H522 lung = test system: NCI-H522 lung
DMS 114 small cell lung = test system: DMS 114 small cell lung
UO-31 renal = test system: UO-31 renal
OVCAR-3 ovarian = test system: OVCAR-3 ovarian
HCC-2998 colon = test system: HCC-2998 colon
SF-539 CNS = test system: SF-539 CNS
DLD-1 colon = test system: DLD-1 colon
EKVX NSCLC = test system: EKVX NSCLC
RXF-631 renal = test system: RXF-631 renal
SF-295 CNS = test system: SF-295 CNS
SN12C renal = test system: SN12C renal
HL-60(TB) leukemia = test system: HL-60(TB) leukemia
KM12 colon = test system: KM12 colon
UACC-62 melanoma = test system: UACC-62 melanoma
HOP-62 NSCLC = test system: HOP-62 NSCLC
A549 NSCLC = test system: A549 NSCLC
SW-620 colon = test system: SW-620 colon
CAKI-1 renal = test system: CAKI-1 renal
SF-268 CNS = test system: SF-268 CNS
M14 melanoma = test system: M14 melanoma
TK-10 renal = test system: TK-10 renal
MALME-3M melanoma = test system: MALME-3M melanoma
SNB-19 CNS = test system: SNB-19 CNS
U251 CNS = test system: U251 CNS
SR leukemia = test system: SR leukemia
RXF 393 renal = test system: RXF 393 renal
HOP-18 NSCLC = test system: HOP-18 NSCLC
LOX IMVI melanoma = test system: LOX IMVI melanoma
NCI-H460 lung = test system: NCI-H460 lung
SNB-78 CNS = test system: SNB-78 CNS
LXFL 529 NSCLC = test system: LXFL 529 NSCLC

O=C1C2=C(c3ccccc31)C(c1ccccc1Cl)N1C(=O)CCSC1=N2 (stereo unspecified)
TGI (HCT-15 colon): > 100 µM
TGI (786-0 renal): > 100 µM
TGI (COLO 205 colon): > 100 µM
TGI (SK-MEL-2 melanoma): > 100 µM
TGI (CCRF-CEM leukemia): > 100 µM
TGI (OVCAR-8 ovarian): > 100 µM
TGI (SK-MEL-5 melanoma): > 100 µM
TGI (RPMI-8226 leukemia): > 100 µM
TGI (M19-MEL melanoma): > 100 µM
TGI (XF 498 CNS): > 100 µM
TGI (HCT-116 colon): > 100 µM
TGI (KM20L2 colon): > 100 µM
TGI (K-562 leukemia): > 100 µM
TGI (SK-MEL-28 melanoma): > 100 µM
TGI (OVCAR-4 ovarian): > 100 µM
TGI (IGROV1 ovarian): > 100 µM
TGI (OVCAR-5 ovarian): > 100 µM
TGI (SNB-75 CNS): > 100 µM
TGI (SK-OV-3 ovarian): > 100 µM
TGI (DMS 273 small cell lung): > 100 µM
TGI (ACHN renal): > 100 µM
TGI (UACC-257 melanoma): > 100 µM
TGI (NCI-H226 lung): > 100 µM
TGI (MOLT-4 leukemia): > 100 µM
TGI (NCI-H23 lung): > 100 µM
TGI (HT29 colon): > 100 µM
TGI (A498 renal): > 100 µM
TGI (HOP-92 NSCLC): > 100 µM
TGI (NCI-H522 lung): > 100 µM
TGI (DMS 114 small cell lung): > 100 µM
TGI (UO-31 renal): > 100 µM
TGI (OVCAR-3 ovarian): > 100 µM
TGI (HCC-2998 colon): > 100 µM
TGI (SF-539 CNS): > 100 µM
TGI (DLD-1 colon): > 100 µM
TGI (EKVX NSCLC): > 100 µM
TGI (RXF-631 renal): > 100 µM
TGI (SF-295 CNS): > 100 µM
TGI (SN12C renal): > 100 µM
TGI (HL-60(TB) leukemia): > 100 µM
TGI (KM12 colon): > 100 µM
TGI (UACC-62 melanoma): > 100 µM
TGI (HOP-62 NSCLC): > 100 µM
TGI (A549 NSCLC): > 100 µM
TGI (SW-620 colon): > 100 µM
TGI (CAKI-1 renal): > 100 µM
TGI (SF-268 CNS): > 100 µM
TGI (M14 melanoma): > 100 µM
TGI (TK-10 renal): > 100 µM
TGI (MALME-3M melanoma): > 100 µM
TGI (SNB-19 CNS): > 100 µM
TGI (U251 CNS): > 100 µM

COc1ccc(Nc2nc3ccccc3nc2-c2cccs2)cc1
TGI (HCT-15 colon): > 100 µM
TGI (786-0 renal): > 100 µM
TGI (COLO 205 colon): > 100 µM
TGI (SK-MEL-2 melanoma): > 100 µM
TGI (CCRF-CEM leukemia): > 100 µM
TGI (OVCAR-8 ovarian): > 100 µM
TGI (SK-MEL-5 melanoma): > 100 µM
TGI (SR leukemia): > 100 µM
TGI (XF 498 CNS): > 100 µM
TGI (HCT-116 colon): > 100 µM
TGI (KM20L2 colon): > 100 µM
TGI (K-562 leukemia): > 100 µM
TGI (SK-MEL-28 melanoma): > 100 µM
TGI (OVCAR-4 ovarian): > 100 µM
TGI (IGROV1 ovarian): > 100 µM
TGI (OVCAR-5 ovarian): > 100 µM
TGI (SNB-75 CNS): 82.2 µM
TGI (SK-OV-3 ovarian): > 100 µM
TGI (RXF 393 renal): > 100 µM
TGI (DMS 273 small cell lung): > 100 µM
TGI (ACHN renal): > 100 µM
TGI (UACC-257 melanoma): > 100 µM
TGI (NCI-H226 lung): > 100 µM
TGI (MOLT-4 leukemia): > 100 µM
TGI (NCI-H23 lung): > 100 µM
TGI (HOP-18 NSCLC): > 100 µM
TGI (A498 renal): > 100 µM
TGI (LOX IMVI melanoma): > 100 µM
TGI (HOP-92 NSCLC): > 100 µM
TGI (NCI-H522 lung): > 100 µM
TGI (DMS 114 small cell lung): > 100 µM
TGI (UO-31 renal): > 100 µM
TGI (OVCAR-3 ovarian): > 100 µM
TGI (HCC-2998 colon): > 100 µM
TGI (SF-539 CNS): > 100 µM
TGI (DLD-1 colon): > 100 µM
TGI (EKVX NSCLC): > 100 µM
TGI (SF-295 CNS): > 100 µM
TGI (SN12C renal): > 100 µM
TGI (HL-60(TB) leukemia): > 100 µM
TGI (KM12 colon): > 100 µM
TGI (UACC-62 melanoma): > 100 µM
TGI (HOP-62 NSCLC): > 100 µM
TGI (A549 NSCLC): > 100 µM
TGI (SW-620 colon): > 100 µM
TGI (CAKI-1 renal): > 100 µM
TGI (SF-268 CNS): > 100 µM
TGI (NCI-H460 lung): > 100 µM
TGI (SNB-78 CNS): > 100 µM
TGI (LXFL 529 NSCLC): > 100 µM
TGI (M14 melanoma): > 100 µM
TGI (TK-10 renal): > 100 µM
TGI (MALME-3M melanoma): > 100 µM
TGI (SNB-19 CNS): > 100 µM
TGI (U251 CNS): > 100 µM

CC1(c2ccccc2)CC(c2ccccc2)=NO1 (stereo unspecified)
TGI (HCT-15 colon): > 100 µM
TGI (786-0 renal): > 100 µM
TGI (COLO 205 colon): > 100 µM
TGI (SK-MEL-2 melanoma): > 100 µM
TGI (CCRF-CEM leukemia): > 100 µM
TGI (OVCAR-8 ovarian): > 100 µM
TGI (SK-MEL-5 melanoma): > 100 µM
TGI (RPMI-8226 leukemia): > 100 µM
TGI (SR leukemia): > 100 µM
TGI (M19-MEL melanoma): > 100 µM
TGI (HCT-116 colon): > 100 µM
TGI (K-562 leukemia): > 100 µM
TGI (SK-MEL-28 melanoma): > 100 µM
TGI (OVCAR-4 ovarian): > 100 µM
TGI (IGROV1 ovarian): > 100 µM
TGI (OVCAR-5 ovarian): > 100 µM
TGI (SNB-75 CNS): > 100 µM
TGI (SK-OV-3 ovarian): > 100 µM
TGI (DMS 273 small cell lung): > 100 µM
TGI (ACHN renal): > 100 µM
TGI (UACC-257 melanoma): > 100 µM
TGI (NCI-H226 lung): > 100 µM
TGI (MOLT-4 leukemia): > 100 µM
TGI (NCI-H23 lung): > 100 µM
TGI (HT29 colon): > 100 µM
TGI (HOP-18 NSCLC): > 100 µM
TGI (A498 renal): > 100 µM
TGI (HOP-92 NSCLC): > 100 µM
TGI (NCI-H522 lung): > 100 µM
TGI (DMS 114 small cell lung): > 100 µM
TGI (UO-31 renal): > 100 µM
TGI (OVCAR-3 ovarian): > 100 µM
TGI (HCC-2998 colon): > 100 µM
TGI (SF-539 CNS): > 100 µM
TGI (DLD-1 colon): > 100 µM
TGI (EKVX NSCLC): > 100 µM
TGI (SF-295 CNS): > 100 µM
TGI (SN12C renal): > 100 µM
TGI (HL-60(TB) leukemia): > 100 µM
TGI (KM12 colon): > 100 µM
TGI (UACC-62 melanoma): > 100 µM
TGI (HOP-62 NSCLC): > 100 µM
TGI (A549 NSCLC): > 100 µM
TGI (SW-620 colon): > 100 µM
TGI (CAKI-1 renal): > 100 µM
TGI (SF-268 CNS): > 100 µM
TGI (NCI-H460 lung): > 100 µM
TGI (SNB-78 CNS): > 100 µM
TGI (LXFL 529 NSCLC): > 100 µM
TGI (M14 melanoma): > 100 µM
TGI (TK-10 renal): > 100 µM
TGI (MALME-3M melanoma): > 100 µM
TGI (SNB-19 CNS): > 100 µM
TGI (U251 CNS): > 100 µM
